Data published in PubChem BioAssay (NCI).
Where “and” joins values, the source holds several entries; their conditions need not be identical. Equal values may be shown once.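 96-well plates; 48 h exposure; 5 concentrations. Endpoints by linear interpolation between flanking doses. Not reached: highest tested concentration assigned. Here, GI50 denotes the concentration required for 50% inhibition of growth. TGI: total growth inhibition.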

Key:
Assay in all cases: NCI tumour cell line growth inhibition, 48 h
OVCAR-8 ovarian = test system: OVCAR-8 ovarian
MDA-MB-231 breast = test system: MDA-MB-231 breast
HT29 colon = test system: HT29 colon
OVCAR-5 ovarian = test system: OVCAR-5 ovarian
OVCAR-3 ovarian = test system: OVCAR-3 ovarian
RPMI-8226 leukemia = test system: RPMI-8226 leukemia
NCI-H522 lung = test system: NCI-H522 lung
SK-OV-3 ovarian = test system: SK-OV-3 ovarian
786-0 renal = test system: 786-0 renal
SF-539 CNS = test system: SF-539 CNS

SMILES	TGI (OVCAR-8 ovarian)	TGI (MDA-MB-231 breast)	TGI (HT29 colon)	TGI (OVCAR-5 ovarian)	TGI (OVCAR-3 ovarian)	TGI (RPMI-8226 leukemia)	TGI (NCI-H522 lung)	TGI (SK-OV-3 ovarian)	TGI (786-0 renal)	TGI (SF-539 CNS)	GI50 (OVCAR-8 ovarian)	GI50 (HT29 colon)	GI50 (OVCAR-5 ovarian)	GI50 (OVCAR-3 ovarian)	GI50 (RPMI-8226 leukemia)	GI50 (NCI-H522 lung)	GI50 (SK-OV-3 ovarian)	GI50 (SF-539 CNS)	GI50 (MDA-MB-231 breast)
CCOC(=O)NC(Nc1ccc(F)cc1F)(C(F)(F)F)C(F)(F)F	> 100 µM	> 100 µM	> 100 µM	> 100 µM	> 100 µM	> 100 µM	> 100 µM	> 100 µM	> 100 µM	> 100 µM	–	–	–	–	–	–	–	–	–
COc1ccc2[nH]c3ccc4cc[n+](CCN5CCC(C6CCN(CC[n+]7ccc8ccc9[nH]c%10ccc(OC)cc%10c9c8c7)CC6)CC5)cc4c3c2c1	50 µM and > 100 µM	50 µM	31.4 µM and > 100 µM	50 µM and > 91.1 µM	50 µM and > 76.2 µM	–	> 50 µM and 5.27 µM	45.8 µM and 20.6 µM	50 µM	50 µM and > 100 µM	8.28 µM	0.938 µM	39.2 µM	42.6 µM	0.367 µM and 0.443 µM	> 50 µM	33.2 µM	1.26 µM	–
Nc1cc(OCC2CCCCC2)nc(N)n1	> 100 µM	> 100 µM	> 100 µM	> 100 µM	> 100 µM	> 100 µM	> 100 µM	> 100 µM	> 100 µM	> 100 µM	–	–	–	–	–	–	–	–	–
N=c1oc2cc(O)ccc2cc1C(=O)Nc1ccccn1	> 100 µM	> 100 µM	> 100 µM	> 100 µM	> 100 µM	> 100 µM	13 µM	> 100 µM	39.3 µM	> 100 µM	–	–	–	–	–	–	–	–	–
CN(C)N1C(=O)C(=O)N(c2cccc3ccccc23)C1=O	> 10 µM	> 10 µM	> 10 µM	> 10 µM	> 10 µM	> 10 µM	> 10 µM	> 10 µM	–	> 10 µM	–	–	–	–	–	–	–	–	–
O=C(Nc1ccccc1C(=O)NCc1ccccc1)/C(=C/c1ccccc1O)NC(=O)c1ccccc1	> 100 µM	> 100 µM	> 100 µM	> 100 µM	> 100 µM	> 100 µM	> 100 µM	> 100 µM	> 100 µM	> 100 µM	–	–	–	–	–	–	–	–	–
COc1ccc2c(c1)/C(=C\c1c(Cl)nc3n1CCS3)C(=O)N2	> 100 µM	27.2 µM	16.3 µM	74.1 µM	17.8 µM	> 100 µM	24.4 µM	66.9 µM	45.9 µM	24.9 µM	–	–	–	–	–	–	–	–	–
Cc1cn(S(=O)(=O)c2ccccc2)c2c(OCc3ccccc3)cc([N+](=O)[O-])cc12	> 100 µM	> 100 µM	> 100 µM	> 100 µM	> 100 µM	> 100 µM	> 100 µM	> 100 µM	> 100 µM	> 100 µM	–	–	–	–	–	–	–	–	–
Cc1cccc2c(=O)c3cccc([C@H](C)C(=O)O)c3oc12	> 100 µM	> 100 µM	> 100 µM	–	> 100 µM	> 100 µM	> 100 µM	> 100 µM	> 100 µM	> 100 µM	–	–	–	–	–	–	–	–	–
COc1ccc(-c2cc(-c3ccc(C)cc3)n(C3OC(COC(C)=O)C(OC(C)=O)C(OC(C)=O)C3OC(C)=O)c(=S)c2C#N)cc1 (centres undefined)	> 100 µM	> 100 µM	> 100 µM	> 100 µM	> 100 µM	> 100 µM	> 100 µM	> 100 µM	> 100 µM	> 100 µM	–	–	–	–	–	–	–	–	–
CC1=NNC(=O)C1C1(C(=O)O)CC(c2c[nH]c3ccccc23)=NC(=S)N1 (centres undefined)	> 100 µM	81.7 µM	78.9 µM	> 100 µM	65.8 µM	84.5 µM	62.6 µM	> 100 µM	> 100 µM	67.9 µM	–	–	–	–	–	–	–	–	–
CC(=O)C1=C(C)N(c2ccccc2)C2(O)C3=C(C(=O)c4ccccc4C3=O)C(O)=CC12Cl (centres undefined)	> 100 µM	> 100 µM	8.45 µM	> 100 µM	> 100 µM	4.39 µM	5.81 µM	> 100 µM	> 100 µM	15.6 µM	–	–	–	–	–	–	–	–	–
COc1c(C(=O)/C(=N/Nc2ccc(C(=O)O)cc2)C(C)=O)c(O)cc2occc12	> 100 µM	> 100 µM	> 100 µM	> 100 µM	> 100 µM	> 100 µM	> 100 µM	> 100 µM	> 100 µM	> 100 µM	–	–	–	–	–	–	–	–	–
Nc1cc(C2CCCc3c2[nH]c2ccccc32)ccc1O (centres undefined)	> 100 µM	> 100 µM	> 100 µM	> 100 µM	> 100 µM	54.9 µM	> 100 µM	> 100 µM	> 100 µM	> 100 µM	–	–	–	–	–	–	–	–	–
Cc1ccc(C(=O)Nc2ccc(S(=O)(=O)O)c3cc(S(=O)(=O)O)cc(S(=O)(=O)O)c23)cc1NC(=O)c1cccc(NC(=O)Nc2cccc(C(=O)Nc3cc(C(=O)Nc4ccc(S(=O)(=O)O)c5cc(S(=O)(=O)O)cc(S(=O)(=O)O)c45)ccc3C)c2)c1	> 100 µM	> 100 µM	> 100 µM	> 100 µM	> 100 µM	> 100 µM	> 100 µM	> 100 µM	> 100 µM	> 100 µM	–	–	–	–	–	–	–	–	–
Nc1cc(CO)cc(Nc2c3ccccc3nc3ccccc23)c1	29.5 µM	24.8 µM	28.8 µM	32.2 µM	32.2 µM	> 100 µM	18.9 µM	29.5 µM	30.4 µM	32 µM	–	–	–	–	–	–	–	–	–
O=S1(=O)OCCOS(=O)(=O)C1(F)Cc1ccccc1	> 100 µM	> 100 µM	> 100 µM	> 100 µM	> 100 µM	> 100 µM	> 100 µM	> 100 µM	> 100 µM	> 100 µM	–	–	–	–	–	–	–	–	–

SMILES	TGI (OVCAR-8 ovarian)	TGI (MDA-MB-231 breast)	TGI (HT29 colon)	TGI (OVCAR-5 ovarian)	TGI (OVCAR-3 ovarian)	TGI (RPMI-8226 leukemia)	TGI (NCI-H522 lung)	TGI (SK-OV-3 ovarian)	TGI (786-0 renal)	TGI (SF-539 CNS)	GI50 (OVCAR-8 ovarian)	GI50 (HT29 colon)	GI50 (OVCAR-5 ovarian)	GI50 (OVCAR-3 ovarian)	GI50 (RPMI-8226 leukemia)	GI50 (NCI-H522 lung)	GI50 (SK-OV-3 ovarian)	GI50 (SF-539 CNS)	GI50 (MDA-MB-231 breast)
O=C1c2c(c3c4cc(F)ccc4oc3c3[nH]c4ccccc4c23)C(=O)N1O	> 100 µM	21.6 µM	> 100 µM	> 100 µM	7.96 µM	7.31 µM	5.41 µM	19.6 µM	–	9.09 µM	1.82 µM	3.06 µM	38.2 µM	2.53 µM	1.22 µM	0.53 µM	2.48 µM	1.6 µM	2.68 µM
CN1C/C(=C\c2cccs2)C2=NN(c3ccccc3)C(c3cccs3)C2C1 (centres undefined)	> 100 µM	98.7 µM	22.4 µM	> 100 µM	> 21.8 µM	> 100 µM	> 100 µM	> 100 µM	> 44.7 µM	> 100 µM	–	–	–	–	–	–	–	–	–
O=C1/C(=C/c2cccc([N+](=O)[O-])c2)N=C(c2ccccc2)N1c1nc2ccc(Sc3ccccc3)cc2[nH]1	> 100 µM	> 100 µM	> 100 µM	> 100 µM	–	> 100 µM	> 100 µM	> 100 µM	> 100 µM	> 100 µM	–	–	–	–	–	–	–	–	–
COc1cc2ncnc(NS(=O)(=O)c3cc4ccccc4s3)c2cc1OC	> 100 µM	> 100 µM	> 100 µM	> 100 µM	> 100 µM	> 100 µM	> 100 µM	> 100 µM	> 100 µM	> 100 µM	–	–	–	–	–	–	–	–	–
CCN(CC)Cc1cc(N=Nc2c(O)ccc3c(N=Nc4ccc(O)c(CN(CC)CC)c4)c(O)ccc23)ccc1O	5.27 µM	4.52 µM	9.31 µM	> 44.9 µM	> 20.7 µM	19 µM	10.3 µM	6.85 µM	3.75 µM	9.2 µM	–	–	–	–	–	–	–	–	–
COc1cc(/C=C2\C(=O)N(c3cccc(NC(C)=O)c3)C(c3ccccc3)S2(=O)=O)cc(OC)c1OC (centres undefined)	> 100 µM	> 100 µM	> 100 µM	> 100 µM	> 100 µM	> 100 µM	> 100 µM	> 100 µM	> 100 µM	> 100 µM	–	–	–	–	–	–	–	–	–
Cc1cc2ncn(CC(=O)O)c2cc1C	> 100 µM	> 100 µM	> 100 µM	> 100 µM	> 100 µM	> 100 µM	> 100 µM	> 100 µM	> 100 µM	> 100 µM	–	–	–	–	–	–	–	–	–
O=C(CC(C(=O)c1ccsc1)c1cccs1)c1ccccc1 (centres undefined)	> 100 µM	> 100 µM	> 100 µM	> 100 µM	> 100 µM	> 100 µM	> 100 µM	> 100 µM	> 100 µM	> 100 µM	–	–	–	–	–	–	–	–	–
N=c1oc2ccc3ccccc3c2cc1-c1nc2ccccc2c(=O)[nH]1	> 100 µM	73.4 µM	39.5 µM	> 100 µM	–	> 100 µM	28.8 µM	> 100 µM	> 100 µM	> 100 µM	–	–	–	–	–	–	–	–	–
O=C(CCCc1cccc2[nH]c3c(c12)CN(Cc1ccccc1)CC3)c1ccc(F)cc1	> 100 µM	> 100 µM	> 45.8 µM	> 100 µM	> 100 µM	> 95.1 µM	> 91.1 µM	> 100 µM	> 100 µM	> 100 µM	–	–	–	–	–	–	–	–	–
COc1ccc(SCc2cc(OC)ccc2OC)cc1	> 100 µM	> 100 µM	> 100 µM	> 100 µM	> 91.7 µM	> 100 µM	> 100 µM	> 71.8 µM	> 100 µM	> 100 µM	–	–	–	–	–	–	–	–	–
C(=N\NC1=NCCCCN1)/c1ccc2ccccc2c1	> 100 µM	65.9 µM	71.9 µM	76.7 µM	> 100 µM	76.1 µM	87.1 µM	> 100 µM	67.9 µM	51.3 µM	–	–	–	–	–	–	–	–	–
CCO/N=C\c1ccc2oc(-c3ccccc3)cc(=O)c2c1	12.5 µM	13.1 µM	5.34 µM	40 µM	0.913 µM	9.42 µM	0.265 µM	24 µM	17.7 µM	2.86 µM	–	–	–	–	–	–	–	–	–
CC1=C(C)C(=O)OC(C(C)(O)C2(O)CC3OC34C3CC(O)C56OC5C=CC(=O)C6(C)C3CCC42C)C1 (centres undefined)	6.67 µM	13.1 µM	4.2 µM	10.4 µM	6.23 µM	5.34 µM	1.97 µM	14.2 µM	–	6.39 µM	–	–	–	–	–	–	–	–	–
CCCCn1c(=O)[nH]c2c(N)ncnc21	> 100 µM	> 100 µM	> 100 µM	> 100 µM	> 100 µM	–	> 100 µM	> 100 µM	> 100 µM	> 100 µM	–	–	–	–	–	–	–	–	–
COc1cc(/C=C/C(=O)CC(=O)/C=C/c2cc(C)c(O)c(OC)c2)cc(C)c1O	> 100 µM	> 100 µM	> 100 µM	> 100 µM	> 100 µM	> 100 µM	> 100 µM	> 100 µM	> 100 µM	> 100 µM	–	–	–	–	–	–	–	–	–
O=[N+]([O-])c1ccc2c(c1)nc1n2C(c2c(F)cccc2F)SC1 (centres undefined)	> 100 µM	> 100 µM	> 100 µM	> 100 µM	> 100 µM	> 100 µM	> 100 µM	> 100 µM	> 100 µM	> 100 µM	–	–	–	–	–	–	–	–	–
